Where two headings read alike, the source gives them in different places.

This assay concerns HCV replicon. Nature of the assay: Cell-Based HCV Replicon Assay. The essentials: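 Replicon cells, 5000/well, treated 3 days with 10 serial 2-fold dilutions (top 25 μM to 1 μM) in 0.5% DMSO, 10% FBS. Replicon RNA measured by multiplex Taqman RT-PCR (NS5B amplicon, GAPDH control); EC50/EC90 = concentration giving ΔCT of 1/3.2 over baseline from sigmoid fit.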
[1] abbreviates: Hepatitis C virus, HCV Replicon assay, EC90 range, Table VI, read-out: EC90.
Where [2] appears, read: Hepatitis C virus, 72 h, Table IV, replicon cells, day 3, real time PCR, EC90 = concentration for ΔCT=3.2 over baseline, read-out: EC90.
[3] abbreviates: Hepatitis C virus, 72 h, Table V, class codes, replicon cells, day 3, real time PCR, EC90 = concentration for ΔCT=3.2 over baseline, read-out: EC90 (uM) range.

In the case of `Cc1nc(NC(C)C2CC(F)(F)C2)nc(N[C@@H]2C[C@H](CO)[C@@H](O)[C@H]2O)c1-c1nc2c(C3CC3)nccc2s1` (stereo partly shown) [Example 5305], the 90% effect concentration (EC90) under setting [1] fell in the range of 0.5 to 5 µM.
Same read-out and setting: in the case of `CCCCCNc1nc(C)c(-c2nc3c(C)nccc3s2)c(N[C@@H]2C[C@H](C(O)(CC)CC)[C@@H](O)[C@H]2O)n1` [Example 5272] it was less than 0.5 µM; in that of `CSCCCNc1nc(C)c(-c2nc3c(C)nccc3s2)c(N[C@@H]2C[C@H](C(C)(C)O)[C@@H](O)[C@H]2O)n1` [Example 5261], less than 0.5 µM; in that of `Cc1nc(NCCC2(O)CCCC2)nc(N[C@@H]2C[C@H](CS(=O)(=O)c3cc(F)cc(F)c3)[C@@H](O)[C@H]2O)c1-c1nc2c(C)nccc2s1` [Example 5120], less than 0.5 µM.
On the same count and under the same terms, in the case of `COCCNc1nc(C)c(-c2nc3c(C)nccc3s2)c(N[C@@H]2C[C@H](CC(C)(C)O)[C@@H](O)[C@H]2O)n1` [Example 5307] it was less than 0.5 µM; in that of `Cc1nc(N)nc(N[C@@H]2C[C@H](C(C)(C)O)[C@@H](O)[C@H]2O)c1-c1nc2c(C)nccc2s1` [Example 5242], less than 0.5 µM.
On the same count and under the same terms, in the case of `CCSC[C@@H](C)Nc1nc(C)c(-c2nc3c(C)nccc3s2)c(N[C@@H]2C[C@H](C(C)(C)O)[C@@H](O)[C@H]2O)n1` [Example 5253] it was less than 0.5 µM.
Turning to `CCc1cc2sc(-c3c(C)nc(NCC(F)(F)F)nc3N[C@@H]3C[C@H](CO)[C@@H](O)[C@H]3O)nc2c(CC)n1` [Example 4706], the EC90 under setting [2] is 0.045 µM.
For the compound `Cc1nc(N)nc(N[C@@H]2C[C@H](COc3c(F)cccc3F)[C@@H](O)[C@H]2O)c1-c1nc2c(C)nccc2s1` [Example 5212], under setting [1], the EC90 is less than 0.5 µM.
On the same count and under the same terms, in the case of `CO[C@H]1C[C@@H](CNc2nc(C)c(-c3nc4c(C5CC5)nccc4s3)c(N[C@@H]3C[C@H](CO)[C@@H](O)[C@H]3O)n2)C1` [Example 5292] it was less than 0.5 µM.
Still for that read-out and setting: in the case of `CCS(=O)(=O)C(C)(C)[C@H]1C[C@@H](Nc2nc(NC3CCC3)nc(C)c2-c2nc3c(C4CC4)nccc3s2)[C@H](O)[C@@H]1O` [Example 5060] it was less than 0.5 µM; in that of `CCO[C@@H](CNc1nc(C)c(-c2nc3c(C4CC4)nccc3s2)c(N[C@@H]2C[C@H](CO)[C@@H](O)[C@H]2O)n1)C(F)(F)F` [Example 5234], less than 0.5 µM; in that of `CO[C@H](C)CNc1nc(C)c(-c2nc3c(C)nccc3s2)c(N[C@@H]2C[C@H](C(C)(C)OC)[C@@H](O)[C@H]2O)n1` [Example 5275], less than 0.5 µM.
Same read-out and setting: in the case of `CCC(O)(CC)[C@H]1C[C@@H](Nc2nc(NC3CCOCC3)nc(C)c2-c2nc3c(C)nccc3s2)[C@H](O)[C@@H]1O` [Example 5271] it was less than 0.5 µM.
Regarding `Cc1nc(NC2(C3CCCC3)CC2)nc(N[C@@H]2C[C@H]([C@H](O)C(C)C)[C@@H](O)[C@H]2O)c1-c1nc2c(C)nccc2s1` [Example 5108], the EC90 under setting [1] was less than 0.5 µM.
Take `CCOCCNc1nc(C)c(-c2nc3c(C4CC4)nccc3s2)c(N[C@@H]2C[C@H](CS(=O)(=O)CC)[C@@H](O)[C@H]2O)n1` [Example 3721]: the EC90 under setting [2] was 0.024 µM.
Turning to `CO[C@@H]1CCCC[C@H]1Nc1nc(C)c(-c2nc3c(C)nccc3s2)c(N[C@@H]2C[C@H](CO)[C@@H](O)[C@H]2O)n1` [Example 5139], the concentration for an effect of 90% (EC90) under setting [1] is less than 0.5 µM.
As to `Cc1nc(N[C@H](C)C2CC2)nc(N[C@@H]2C[C@H](CCO)[C@@H](O)[C@H]2O)c1-c1nc2c(C)nccc2s1` [Example 3561], the EC90 under setting [2] was found to be 0.023 µM.
As to `Cc1nc(NCC(C)(C)C)nc(N[C@@H]2C[C@H](C(C)(F)F)[C@@H](O)[C@H]2O)c1-c1nc2c(C3CC3)nccc2s1` [Example 5176], the concentration for an effect of 90% (EC90) under setting [1] is less than 0.5 µM.
Same read-out and setting: in the case of `C#CCCNc1nc(C)c(-c2nc3c(C)nccc3s2)c(N[C@@H]2C[C@H](C(C)(C)O)[C@@H](O)[C@H]2O)n1` [Example 5260] it was less than 0.5 µM.
With `Cc1nc(NCC2(O)CC2)nc(N[C@@H]2C[C@H](C3(O)CCCC3)[C@@H](O)[C@H]2O)c1-c1nc2c(C)nccc2s1` [Example 5111], the 90% effect concentration (EC90) under setting [1] was less than 0.5 µM.
Same read-out and setting: in the case of `Cc1nc(NCC(F)(F)F)nc(NC2(CO)CCCC2)c1-c1nc2c(C)nccc2s1` [Example 5116] it was less than 0.5 µM; in that of `Cc1nc(NCCS(=O)(=O)N(C)C)nc(N[C@@H]2C[C@H](C(C)(C)O)[C@@H](O)[C@H]2O)c1-c1nc2c(C)nccc2s1` [Example 5288], less than 0.5 µM.
`COCCNc1ncc(-c2nc3c(C4CC4)nccc3s2)c(N[C@@H]2C[C@H](CS(C)(=O)=O)[C@@H](O)[C@H]2O)n1` [Example 4916]: the concentration for an effect of 90% (EC90) under setting [3] lay within 0.5 to 5 µM.
On to `Cc1nc(NCC2CC2)nc(N[C@@H]2C[C@H](C(C)(C)S(=O)(=O)c3ccccc3)[C@@H](O)[C@H]2O)c1-c1nc2c(N)nccc2s1` [Example 5080], for which the EC90 under setting [1] is less than 0.5 µM.
With `CCc1nccc2sc(-c3c(C)nc(NCC(C)(C)C)nc3N[C@@H]3C[C@H](CS(=O)(=O)c4ccc(F)c(C)c4)[C@@H](O)[C@H]3O)nc12` [Example 5018], the EC90 under setting [1] was less than 0.5 µM.
Still for that read-out and setting: in the case of `COC[C@@H](C)Nc1nc(C)c(-c2nc3c(C)nccc3s2)c(N[C@@H]2C[C@H](C(C)(C)O)[C@@H](OC)[C@H]2OC)n1` [Example 5263] it was less than 0.5 µM.
Same read-out and setting: in the case of `Cc1nc(NC2CCC2)nc(N[C@@H]2C[C@H](C(C)(C)NS(C)(=O)=O)[C@@H](O)[C@H]2O)c1-c1nc2c(C)nccc2s1` [Example 5049] it was less than 0.5 µM; in that of `Cc1nc(NCC2(O)CCCC2)nc(NC2(C)CCC2)c1-c1nc2c(C)nccc2s1` [Example 5222], less than 0.5 µM; in that of `CO[C@H]1COC[C@@H]1Nc1nc(C)c(-c2nc3c(C)nccc3s2)c(N[C@@H]2C[C@H](C(C)(C)O)[C@@H](O)[C@H]2O)n1` [Example 5218], less than 0.5 µM.
With `Cc1cc2sc(-c3c(C)nc(NCC(F)(F)F)nc3N[C@@H]3C[C@H](CO)[C@@H](O)[C@H]3O)nc2cn1` [Example 4910], the EC90 under setting [3] was less than 0.5 µM.
The same measure, in the same setting: in the case of `C[C@@H](Nc1ncc(-c2nc3c(C4CC4)nccc3s2)c(N[C@@H]2C[C@H](CS(C)(=O)=O)[C@@H](O)[C@H]2O)n1)c1ccc(OC(F)(F)F)cc1` [Example 4921] it was 0.5 to 5 µM.
In the case of `Cc1nc(NCC2CC(F)(F)C2)nc(N[C@@H]2C[C@H](CC(C)(C)O)[C@@H](O)[C@H]2O)c1-c1nc2c(C)nccc2s1` [Example 5312], the 90% effect concentration (EC90) under setting [1] was less than 0.5 µM.
The same measure, in the same setting: in the case of `Cc1nc(NC2CC2)nc(N[C@@H]2C[C@H](C(C)(C)NS(C)(=O)=O)[C@@H](O)[C@H]2O)c1-c1nc2c(C)nccc2s1` [Example 5048] it was less than 0.5 µM.
Take `Cc1nc(N[C@H](C)c2ccc(OC(F)(F)F)cc2)nc(N[C@@H]2C[C@H](C(=O)Nc3nccs3)[C@@H](O)[C@H]2O)c1-c1nc2c(C3CC3)nccc2s1` [Example 4928]: under setting [3], the concentration for an effect of 90% (EC90) was less than 0.5 µM.
Consider `Cc1nc(N)nc(N[C@@H]2C[C@H](CO)[C@@H](O)[C@H]2O)c1-c1nc2c(C3CC3)nccc2s1` [Example 5258], for which, under setting [1], the EC90 was less than 0.5 µM.
For the compound `Cc1nccc2sc(-c3cnc(N)nc3N[C@@H]3C[C@H](C(C)(C)O)[C@@H](O)[C@H]3O)nc12` [Example 4937], the concentration for an effect of 90% (EC90) under setting [3] is 0.5 to 5 µM.
With `COC[C@@H](C)Nc1nc(C)c(-c2nc3c(C)nccc3s2)c(N[C@@H]2C[C@H](C3(O)CC3)[C@@H](O)[C@H]2O)n1` [Example 5240], the 90% effect concentration (EC90) under setting [1] was less than 0.5 µM.
On to `Cc1nc(NCC2(O)CCCC2)nc(N[C@@H]2C[C@H](C3(O)CCCC3)[C@@H](O)[C@H]2O)c1-c1nc2c(C)nccc2s1` [Example 5110], for which the 90% effect concentration (EC90) under setting [1] is less than 0.5 µM.
For `CCNC(=O)C(O)[C@H]1C[C@@H](Nc2nc(N[C@H](C)COCC)nc(C)c2-c2nc3c(C)nccc3s2)[C@H](O)[C@@H]1O` (stereo partly shown) [Example 4025], the EC90 under setting [2] turned out to be 0.008 µM.
As for `Cc1nc(N[C@H]2CCC[C@@H]2O)nc(N[C@@H]2C[C@H](CO)[C@@H](O)[C@H]2O)c1-c1nc2c(C)nccc2s1` [Example 5150], the concentration for an effect of 90% (EC90) under setting [1] was less than 0.5 µM.
The same measure, in the same setting: in the case of `COCCNc1nc(C)c(-c2nc3c(C4CC4)nccc3s2)c(NC2(CO)CCCC2)n1` [Example 5126] it was less than 0.5 µM.
With `Cc1nc(NCC2CC2)nc(N[C@@H]2C[C@H](CS(=O)(=O)c3ccncc3)[C@@H](O)[C@H]2O)c1-c1nc2c(C)nccc2s1` [Example 3580], under setting [2], the EC90 was determined as 0.012 µM.
As to `COCCNc1nc(C)c(-c2nc3c(C)nccc3s2)c(N[C@@H]2C[C@H](CS(=O)(=O)c3ccc(F)c(C)c3)[C@@H](O)[C@H]2O)n1` [Example 5011], under setting [1], the concentration for an effect of 90% (EC90) was less than 0.5 µM.
With `C[C@@H](Nc1ncc(-c2nc3c(C4CC4)nccc3s2)c(N[C@@H]2C[C@H](CS(C)(=O)=O)[C@@H](O)[C@H]2O)n1)C1CCC1` [Example 4918], under setting [3], the EC90 was less than 0.5 µM.
As for `COC[C@@H](C)Nc1nc(C)c(-c2nc3c(C)nccc3s2)c(N[C@@H]2C[C@H](C(C)(C)NS(C)(=O)=O)[C@@H](O)[C@H]2O)n1` [Example 5037], the EC90 under setting [1] was less than 0.5 µM.
The same measure, in the same setting: in the case of `COC(=O)NC(C)(C)[C@H]1C[C@@H](Nc2nc(NCC3CC3)nc(C)c2-c2nc3c(C)nccc3s2)[C@H](O)[C@@H]1O` [Example 5046] it was less than 0.5 µM.
Turning to `CO[C@@H](CNc1nc(C)c(-c2nc3c(C4CC4)nccc3s2)c(N[C@@H]2C[C@H](CO)[C@@H](O)[C@H]2O)n1)C(F)(F)F` [Example 5231], the concentration for an effect of 90% (EC90) under setting [1] was less than 0.5 µM.
As for `COCCNc1nc(C)c(-c2nc3cnc(C)cc3s2)c(N[C@@H]2C[C@H](CO)[C@@H](O)[C@H]2O)n1` [Example 4946], the EC90 under setting [3] is less than 0.5 µM.
With `COCC(O)(COC)[C@H]1C[C@@H](Nc2nc(NCC3CC3)nc(C)c2-c2nc3c(C)nccc3s2)[C@H](O)[C@@H]1O` [Example 5246], the 90% effect concentration (EC90) under setting [1] was less than 0.5 µM.
The same measure, in the same setting: in the case of `Cc1nc(NCC2CC2)nc(NC2(CO)CCCCC2)c1-c1nc2c(C)nccc2s1` [Example 5199] it was less than 0.5 µM.
Take `Cc1nc(NC(C)C2CC(F)(F)C2)nc(N[C@@H]2C[C@H](CO)[C@@H](O)[C@H]2O)c1-c1nc2c(C)nccc2s1` (stereo partly shown) [Example 5308]: the EC90 (HCV Replicon assay, EC90 range, Table VI, read-out: EC90) is less than 0.5 µM.
